Experimental data: US20250346600A1, “TRICYCLIC DERIVATIVES AND RELATED USES” (MOMA Therapeutics, Inc., priority 2023, published 2025)

Experiments:
[1] = molecular target: Full length WRN protein (aa 2-1432) (Homo sapiens (Human), UniProt Q14191); assay: WRN ATPase ADP-Glo biochemical assay, Assay Format A (10 μM ATP); conditions: 0.25 nM WRN, 100 nM C6.18 ssDNA, 30 min preincubation, read-out: ATPase ADPGlo AC50 (uM)- Assay Format A
Text: Full length Werner helicase construct (Uniprot: Q14191) with an N-terminal FLAG-AVI-TEV tag was expressed using the Sf9 cell/baculovirus expression system. The harvested cell pellet was resuspended and lysed in a glass homogenizer. After insoluble material was removed by centrifugation, the helicase protein was first purified with FLAG affinity resin and then further purified through a size-exclusion chromatography column. Peak fractions containing the purified protein were concentrated, split into aliquots and frozen in liquid nitrogen to be thawed before use. Biochemical Assay Description (ATPase activity)-Assay Format A WRN activity was measured using an ATPase assay. Full length WRN protein (aa 2-1432) (production described separately) was used for the biochemical activity assays. The 39-mer ssDNA “C6.18” [NT] was purchased from IDT and used as a substrate. Quantification of ATP hydrolysis was evaluated using the ADP-Glo assay kit (Promega, Madison, WI). An enzyme titration time-course was performed to determine the optimal assay conditions. […] To evaluate the inhibitory effects of the compounds, 11-point 3-fold serial dilutions were prepared in DMSO. 50 nL of each concentration in duplicate was preincubated for 30 minutes in a 384-well microplate (Greiner #784075) with 5 μL of 0.5 nM WRN in assay buffer. The reaction was initiated by adding 5 μL of 200 nM C6.18 DNA with 20 μM ATP and was allowed to proceed for 30 minutes at room temperature. The reaction was stopped with 10 μL ADP-Glo reagent for 1 hour to remove unreacted ATP. Lastly, 20 μL ATP detection reagent was added and incubated for 1 hour to generate the luminescence signal. Control wells included “high controls” with no inhibition (DMSO, no compound) and “low controls” with maximum inhibition (no WRN). Luminescence was recorded on a PHERAstar (BMG Labtech, Ortenberg, Germany). Data was fit using the “Smart Fit” method within the Genedata Screener Software (Basel, Switzerland) to obtain IC50 values using four-parameter fits. Reported IC50s are the geometric means of at least two independent trials.

HCT116 cells = assay: HCT116 (MSI) 7 day viability, CellTiter Glo; format: cell-based; conditions: Homo sapiens, HCT-116, 168 h, 7 days, read-out: HCT116 (MSI) Viability 7 Day Abs AC50
Method in brief: (§1)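 For each line, compound dilution series (3-fold, 10 points) met a defined seeding density—HCT116 50, HT29 500 cells/well—followed by 7 days at 37 °C. Luminescent ATP signal, background-corrected with no-cell wells, gave four-parameter logistic IC50s.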

HT29 cells = assay: HT29 (MSS) 7 day viability, CellTiter Glo; format: cell-based; conditions: Homo sapiens, HT-29, 168 h, 7 days, read-out: HT29 (MSS) Viability 7 Day CTGAbs AC50
Method in brief: as §1

Chain of Full length WRN protein (aa 2-1432) (Q14191 2-1432): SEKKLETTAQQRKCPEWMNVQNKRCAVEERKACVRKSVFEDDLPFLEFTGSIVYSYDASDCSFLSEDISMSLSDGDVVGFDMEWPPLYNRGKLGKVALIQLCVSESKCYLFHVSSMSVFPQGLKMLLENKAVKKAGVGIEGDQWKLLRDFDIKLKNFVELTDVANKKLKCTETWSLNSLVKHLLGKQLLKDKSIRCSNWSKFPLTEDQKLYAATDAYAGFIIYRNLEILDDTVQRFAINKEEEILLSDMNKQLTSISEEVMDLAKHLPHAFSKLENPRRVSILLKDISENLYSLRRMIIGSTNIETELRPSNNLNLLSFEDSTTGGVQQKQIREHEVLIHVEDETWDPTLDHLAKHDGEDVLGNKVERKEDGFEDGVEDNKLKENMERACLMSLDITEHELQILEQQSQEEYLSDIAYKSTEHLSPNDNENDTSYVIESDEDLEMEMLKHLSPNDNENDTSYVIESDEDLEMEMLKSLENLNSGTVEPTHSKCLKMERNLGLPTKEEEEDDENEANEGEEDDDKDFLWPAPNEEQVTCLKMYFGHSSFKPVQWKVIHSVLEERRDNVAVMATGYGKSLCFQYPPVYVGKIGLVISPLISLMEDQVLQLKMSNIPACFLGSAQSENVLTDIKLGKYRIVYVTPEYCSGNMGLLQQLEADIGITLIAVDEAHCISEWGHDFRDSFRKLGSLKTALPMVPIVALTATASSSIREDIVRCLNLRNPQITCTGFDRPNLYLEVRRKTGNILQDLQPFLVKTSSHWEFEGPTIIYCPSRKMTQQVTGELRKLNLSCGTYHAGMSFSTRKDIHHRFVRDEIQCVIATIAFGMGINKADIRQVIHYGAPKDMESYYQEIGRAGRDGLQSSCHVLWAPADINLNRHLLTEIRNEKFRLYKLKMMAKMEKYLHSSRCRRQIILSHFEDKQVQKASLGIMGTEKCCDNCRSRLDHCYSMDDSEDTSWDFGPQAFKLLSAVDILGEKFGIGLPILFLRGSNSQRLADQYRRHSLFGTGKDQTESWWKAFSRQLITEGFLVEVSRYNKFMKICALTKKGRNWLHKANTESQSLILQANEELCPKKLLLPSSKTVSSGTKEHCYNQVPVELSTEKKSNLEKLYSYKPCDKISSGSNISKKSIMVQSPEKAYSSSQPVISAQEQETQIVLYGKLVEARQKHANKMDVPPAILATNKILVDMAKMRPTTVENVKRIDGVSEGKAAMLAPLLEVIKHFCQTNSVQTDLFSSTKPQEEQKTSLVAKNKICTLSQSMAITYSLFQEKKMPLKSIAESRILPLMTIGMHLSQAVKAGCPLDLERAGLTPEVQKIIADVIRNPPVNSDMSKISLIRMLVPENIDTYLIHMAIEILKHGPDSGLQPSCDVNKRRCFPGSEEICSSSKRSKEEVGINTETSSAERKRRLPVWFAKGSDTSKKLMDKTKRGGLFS

Row | AC50 [1] | SMILES | AC50 (HCT116 cells) | AC50 (HT29 cells)
1 | 0.005 to 0.015 µM | C=CC(=O)N1Cc2nn(-c3ccc(C(C)C)cc3C)c3c2C(C1)N(C(=O)c1ccc(Br)c(O)c1)CC3 (stereo not drawn) [Compound 35, 1-(6-(4-bromo-3-hydroxybenzoyl)-1-(4-isopropyl-2-methylphenyl)-1,5,5a,6,7,8-hexahydropyrazolo[3,4,5-de][1,7]naphthyridin-4(3H)-yl)prop-2-en-1-one] | 100 to 250 nM | > 3000 nM
2 | < 0.0015 µM | C=CC(=O)N1CCc2nn(-c3ccc(C4CCC4)cc3O)c3c2C(C1)N(C(=O)c1cnc(Br)c2[nH]cnc12)CC3 (stereo not drawn) [Compound 137, 1-(5-(4-bromo-3H-imidazo[4,5-c]pyridine-7-carbonyl)-2-(4-cyclobutyl-2-hydroxyphenyl)-2,3,4,5,5a,6,8,9-octahydro-7H-1,2,5,7-tetraazabenzo[cd]azulen-7-yl)prop-2-en-1-one] | 1 to 100 nM | > 3000 nM
3 | 0.015 to 0.055 µM | C=CC(=O)N1CCc2nn(-c3ccc(C4CC4)cc3)c3c2C(C1)N(C(=O)c1ccc(OC(C)C)nc1)CC3 (stereo not drawn) [Compound 122, 1-(2-(4-cyclopropylphenyl)-5-(6-isopropoxynicotinoyl)-2,3,4,5,5a,6,8,9-octahydro-7H-1,2,5,7-tetraazabenzo[cd]azulen-7-yl)prop-2-en-1-one] | 500 to 1000 nM | > 3000 nM
4 | 0.015 to 0.055 µM | C=CC(=O)N1CCn2nc(-c3ccc(C(C)C)cc3)c3c2C(C1)N(C(=O)c1ccc(Br)c(O)c1)CC3 (stereo not drawn) [Compound 37, 1-(5-(4-bromo-3-hydroxybenzoyl)-2-(4-isopropylphenyl)-4,5,5a,6,8,9-hexahydro-1,5,7,9a-tetraazabenzo[cd]azulen-7(3H)-yl)prop-2-en-1-one] | > 1000 nM | > 3000 nM
5 | > 0.055 µM | C=CC(=O)N1CCc2nn(-c3ccc(C4CC4)cc3)c3c2C(C1)N(C(=O)c1cc2n(n1)CCN(C)S2(=O)=O)CC3 (stereo not drawn) [Compound 116, 1-(2-(4-cyclopropylphenyl)-5-(2-methyl-1,1-dioxido-3,4-dihydro-2H-pyrazolo[1,5-e][1,2,5]thiadiazine-7-carbonyl)-2,3,4,5,5a,6,8,9-octahydro-7H-1,2,5,7-tetraazabenzo[cd]azulen-7-yl)prop-2-en-1-one] | > 1000 nM | > 3000 nM
6 | > 0.055 µM | C=CC(=O)N1CCc2nn(-c3ccc(C(C)C)cc3)c3c2C(C1)N(C(=O)c1ccc2c(cnn2C(F)(F)F)c1)CC3 (stereo not drawn) [Compound 11, 1-(2-(4-isopropylphenyl)-5-(1-(trifluoromethyl)-1H-indazole-5-carbonyl)-2,3,4,5,5a,6,8,9-octahydro-7H-1,2,5,7-tetraazabenzo[cd]azulen-7-yl)prop-2-en-1-one] | > 1000 nM | > 3000 nM
7 | 0.015 to 0.055 µM | C=CC(=O)N1CCOCc2nn(-c3ccc(C(C)C)cc3C)c3c2C(C1)N(C(=O)c1ccc(Br)c(O)c1)CC3 (stereo not drawn) [Compound 36, 1-(5-(4-bromo-3-hydroxybenzoyl)-2-(4-isopropyl-2-methylphenyl)-2,4,5,5a,6,8,9,11-octahydro-10-oxa-1,2,5,7-tetraazacyclonona[cd]inden-7(3H)-yl)prop-2-en-1-one] | 500 to 1000 nM | > 3000 nM
8 | 0.015 to 0.055 µM | C=CC(=O)N1CCN(C)c2nn(-c3ccc(C(C)C)cc3)c3c2C(C1)N(C(=O)c1ccc(Br)c2[nH]cnc12)CC3 (stereo not drawn) [Compound 56, 1-(5-(7-bromo-1H-benzo[d]imidazole-4-carbonyl)-2-(4-isopropylphenyl)-10-methyl-2,4,5,5a,6,8,9,10-octahydro-1,2,5,7,10-pentaazacycloocta[cd]inden-7(3H)-yl)prop-2-en-1-one] | 250 to 500 nM | > 3000 nM
9 | < 0.0015 µM | C=CC(=O)N1CCc2nn(-c3ccc(C4CCC4)cc3O)c3c2C(C1)N(C(=O)c1ncc(C(F)(F)F)c2[nH]cnc12)CC3 (stereo not drawn) [Compound 154, 1-(2-(4-cyclobutyl-2-hydroxyphenyl)-5-(7-(trifluoromethyl)-1H-imidazo[4,5-c]pyridine-4-carbonyl)-2,3,4,5,5a,6,8,9-octahydro-7H-1,2,5,7-tetraazabenzo[cd]azulen-7-yl)prop-2-en-1-one] | 1 to 100 nM | > 3000 nM
10 | 0.015 to 0.055 µM | CN(C)CC=CC(=O)N1CCOc2nn(-c3ccc(C4CCC4)cc3)c3c2C(C1)N(C(=O)c1ccc(Br)c2[nH]cnc12)CC3 (stereo not drawn) [Compound 51, 1-(5-(7-bromo-1H-benzo[d]imidazole-4-carbonyl)-2-(4-cyclobutylphenyl)-2,3,4,5,5a,6,8,9-octahydro-7H-10-oxa-1,2,5,7-tetraazacycloocta[cd]inden-7-yl)-4-(dimethylamino)but-2-en-1-one] | > 1000 nM | > 3000 nM
11 | 0.015 to 0.055 µM | C=CC(=O)N1CCc2nn(-c3ccc(C4CC4)cc3)c3c2C(C1)N(C(=O)c1ccc(C#N)nc1)CC3 (stereo not drawn) [Compound 123, 5-(7-acryloyl-2-(4-cyclopropylphenyl)-3,4,5,5a,6,7,8,9-octahydro-2H-1,2,5,7-tetraazabenzo[cd]azulene-5-carbonyl)picolinonitrile] | 250 to 500 nM | > 3000 nM
12 | 0.015 to 0.055 µM | C=CC(=O)N1CCc2nn(-c3ccc(C4CC4)cc3)c3c2C(C1)N(C(=O)c1ccc(-n2cccn2)nc1)CC3 (stereo not drawn) [Compound 98, 1-(5-(6-(1H-pyrazol-1-yl)nicotinoyl)-2-(4-cyclopropylphenyl)-2,3,4,5,5a,6,8,9-octahydro-7H-1,2,5,7-tetraazabenzo[cd]azulen-7-yl)prop-2-en-1-one] | 250 to 500 nM | > 3000 nM
13 | 0.0015 to 0.005 µM | C=CC(=O)N1CCOc2nn(-c3ccc(C(C)C)cc3)c3c2C(C1)N(C(=O)c1ccc(Br)c(O)c1)CC3 (stereo not drawn) [Compound 48, 1-(5-(4-bromo-3-hydroxybenzoyl)-2-(4-isopropylphenyl)-2,3,4,5,5a,6,8,9-octahydro-7H-10-oxa-1,2,5,7-tetraazacycloocta[cd]inden-7-yl)prop-2-en-1-one] | 100 to 250 nM | > 3000 nM
14 | > 0.055 µM | C=CC(=O)N1CCc2nn(-c3ccc(C4CC4)cc3)c3c2C(C1)N(C(=O)c1ccc(OCC(F)(F)F)nc1)CC3 (stereo not drawn) [Compound 118, 1-(2-(4-cyclopropylphenyl)-5-(6-(2,2,2-trifluoroethoxy)nicotinoyl)-2,3,4,5,5a,6,8,9-octahydro-7H-1,2,5,7-tetraazabenzo[cd]azulen-7-yl)prop-2-en-1-one] | > 1000 nM | > 3000 nM
15 | 0.005 to 0.015 µM | C=CC(=O)N1CCc2nn(-c3ccc(C4CC4)cc3)c3c2C(C1)N(C(=O)c1ccc(C(F)F)nc1)CC3 (stereo not drawn) [Compound 126, 1-(2-(4-cyclopropylphenyl)-5-(6-(difluoromethyl)nicotinoyl)-2,3,4,5,5a,6,8,9-octahydro-7H-1,2,5,7-tetraazabenzo[cd]azulen-7-yl)prop-2-en-1-one] | 250 to 500 nM | > 3000 nM
16 | 0.0015 to 0.005 µM | C=CC(=O)N1CCc2nn(-c3ccc(C4CC4)cc3)c3c2C(C1)N(C(=O)c1cnc([N+](=O)[O-])c(O)c1)CC3 (stereo not drawn) [Compound 120, 1-(2-(4-cyclopropylphenyl)-5-(5-hydroxy-6-nitronicotinoyl)-2,3,4,5,5a,6,8,9-octahydro-7H-1,2,5,7-tetraazabenzo[cd]azulen-7-yl)prop-2-en-1-one] | > 1000 nM | > 3000 nM
17 | > 0.055 µM | C=CC(=O)N1CCc2nn(-c3ccc(C(C)C)cc3)c3c2C(C1)N(C(=O)C1CC1)CC3 (stereo not drawn) [Compound 170, 1-(5-(cyclopropanecarbonyl)-2-(4-isopropylphenyl)-2,3,4,5,5a,6,8,9-octahydro-7H-1,2,5,7-tetraazabenzo[cd]azulen-7-yl)prop-2-en-1-one] | > 1000 nM | > 3000 nM
18 | > 0.055 µM | CC(C)c1ccc(-n2nc3c4c2CCN(C(=O)c2ccc(Br)c5[nH]cnc25)C4CN(C(=O)C2=CCC2)CC3)cc1 (stereo not drawn) [Compound 16, (7-bromo-1H-benzo[d]imidazol-4-yl)(7-(cyclobut-1-ene-1-carbonyl)-2-(4-isopropylphenyl)-2,3,4,5a,6,7,8,9-octahydro-5H-1,2,5,7-tetraazabenzo[cd]azulen-5-yl)methanone] | > 1000 nM | > 3000 nM
